Measurements reported in ChEMBL document CHEMBL1136417, “Siphonols A-E: novel nitric oxide inhibitors from Orthosiphon stamineus of Indonesia” (Bioorg Med Chem Lett, 2003).
pIC50: −log10 of the molar value.

System: J774
Assay: Inhibitory activity against nitric oxide production in lipopolysaccharide (LPS)-activated macrophage -like J774.1 cell
Assay type: functional, cell-based, Mus musculus
Conditions: Mus musculus, J774

Compound	pIC50
C=C[C@@]1(C)C[C@@H](OC(=O)c2ccccc2)C2[C@]3(CO)C(C[C@@H](OC(C)=O)[C@@]2(O)C1=O)C(C)(C)[C@H](OC(C)=O)[C@H](OC(C)=O)[C@@H]3OC(=O)c1ccccc1 (stereo partly drawn)	4.97
CC(=O)O[C@H]1[C@@H](OC(C)=O)C(C)(C)C2C[C@@H](OC(C)=O)[C@@]3(O)C(=O)[C@@](C)(C=O)C[C@@H](OC(=O)c4ccccc4)C3[C@@]2(CO)[C@H]1OC(=O)c1ccccc1 (stereo partly drawn)	4.64
C=C[C@@]1(C)C[C@@H](OC(=O)c2ccccc2)C2[C@]3(CO)C(C[C@@H](O)[C@@]2(O)C1=O)C(C)(C)[C@H](OC(C)=O)[C@H](OC(C)=O)[C@@H]3OC(=O)c1ccccc1 (stereo partly drawn)	4.76

Next, values leading:

pIC50	Compound
3.77	C[C@@H]1C[C@H]2[C@@H]3CCC4=CC(=O)C=C[C@]4(C)[C@@]3(F)[C@@H](O)C[C@]2(C)[C@@]1(O)C(=O)CO [DEXAMETHASONE]
4.33	C=C[C@@]1(C)C[C@@H](OC(=O)c2ccccc2)C2[C@]3(COC(C)=O)C(C[C@@H](O)[C@@]2(O)C1=O)C(C)(C)[C@H](OC(C)=O)[C@H](OC(C)=O)[C@@H]3OC(=O)c1ccccc1 (stereo partly drawn)
4.59	CNC(=N)NCCC[C@H](N)C(=O)O [TILARGININE]
4.64	C=C[C@@]1(C)C[C@@H](OC(=O)c2ccccc2)C2[C@]3(CO)C(C[C@@H](OC(C)=O)[C@@]2(O)C1=O)C(C)(C)[C@H](OC(C)=O)[C@H](O)[C@@H]3OC(=O)c1ccccc1 (stereo partly drawn)

Same assay, conditions: j774

pIC50	Compound
4.56	POLYMYXIN B
